These results are taken from PMC11227536, “Modulation of the Meisenheimer complex metabolism of nitro-benzothiazinones by targeted C-6 substitution” (Communications Chemistry, 2024).

The nature of one data set: Cytotoxicity assay. The class given is cell-based. To be noted: human, n = 4. As to the method:
Supplementary Method 5: Biological Assays […]
2. Proliferation and cytotoxicity assay
Cells and culture conditions
The following cell lines and media were used:
Cell line Cell culture medium
Cells were grown in the appropriate cell culture medium supplemented with 10 mL/L ultraglutamine 1 […]
heat inactivated fetal bovine serum (GIBCO Life Technologies 10270-106) at 37 °C in 5% CO 2 in high density polyethylene flasks (NUNC 156340).
To decide if the compounds have an antiproliferative and/or a cytotoxic effect on human cells, cell death and retardation of cell proliferation were assessed. Under our experimental conditions, the optical density measured from the CellTiter-Blue® reagent and methylene blue assay is proportional to the […]
The test substances were dissolved in DMSO and further diluted in the cell culture medium. The adherent cells were harvested at the logarithmic growth phase after soft trypsinization using 0.25% trypsin in PBS containing 0.02% EDTA (Biochrom KG L2163). For each experiment, approximately 10,000 cells were seeded with 0.1 mL culture medium per well of the 96-well microplates (HUVEC: flat bottomed NUNC 167008, K-562: round bottomed NUNC 163320). […]
For the cytotoxicity assay, HeLa cells were preincubated for 48 hours without the test substances. To test the cytotoxic effect on HeLa, dilutions of the compounds were carried out carefully on the subconfluent monolayers of HeLa cells after the preincubation time. After incubation time, the cytolytic effect of compounds was analysed in comparison to the negative control. The 50% cytotoxic concentration (CC 50 ) was defined as the test compound concentration required for destruction of the cell monolayer by 50% compared to untreated control.
Cells were incubated with dilutions of the test substances in microplates for 72 hours at 37 °C in a humidified atmosphere and 5% CO 2. […]
cytotoxicity and the inhibition of cell proliferation. The number of viable cells was determined subsequent to staining with CellTiter-Blue® reagent or methylene blue. […]
HUVEC and HeLa cells: The adherent HUVEC and HeLa cells were fixed by glutaraldehyde (MERCK […]
gently washing, the stain was eluted by adding 0.2 mL of hydrochloric acid (0.33 M) to each well. The optical densities were measured at 660 nm (methylene blue) in SUNRISE microplate reader (TECAN).
General remarks: Signals from the methylene blue and CellTiter-Blue® reagent are proportional to the number of viable cells. A repeat determination has been conducted in all experiments, four replicates were assayed. The calculations of the different values of GI 50 and CC 50 were performed with the software

A further data set concerns RAW 264.7 cells. Briefly: Hydride Meisenheimer complex (HMC) formation propensity assay, whole cell. The class given is in vitro ADME, murine. To be noted: whole cell in vitro assay, relative to BTZ-043 (1). The source says: As the main goal of our work, we focused on the impact of C-6 substituents on the propensity to form HMC in our recently developed whole cell in vitro assay. Following our standardized protocol, all measurements were normalized relative to BTZ-043 (1). Obtained HMC formation propensities (Table S5) were transformed into their negative decadic logarithm (pHMC) to ease data visualization and subsequent processing during chemoinformatics investigations (Fig. 5). […] In the case of esters, a plausible pattern according to the substituent size was observed. […] Similarly, dimethyl amide 7c and nitrile 9 produced a 14- and 12-fold larger ratio of HMC compared to 1, respectively. Esters 6a–e and oxazoline 7e were also more prone to HMC formation than 1, albeit to a considerably lesser extent (2.5–6-fold).
3. Hydride Meisenheimer complex formation propensity assay
The assay was performed as described previously. 6
RAW 264.7 cell cultivation […]
Samples were analyzed with a Thermo Vanquish Horizon UHPLC system (Thermo Fisher Scientific, Bremen, Germany) coupled to a Thermo Scientific QExactive Orbitrap mass spectrometer (Thermo Fisher Scientific, Bremen, Germany) by using a UPLC column (ACQUITY HSS T3, Waters, 1.8 µm particle size, 2.1 × 50 mm). […]

`COC(=O)c1cc([N+](=O)[O-])c2sc(N3CCC4(CC3)OC[C@H](C)O4)nc(=O)c2c1` [Compound 6a]: the CC50 at 72 h in “Cytotoxicity assay” is more than 119 µM.

As for `CC(C)OC(=O)c1cc([N+](=O)[O-])c2sc(N3CCC4(CC3)OC[C@H](C)O4)nc(=O)c2c1` [Compound 6c], the CC50 at 72 h in “Cytotoxicity assay” is more than 111 µM.

`C[C@H]1COC2(CCN(c3nc(=O)c4cc(C(=O)N(C)C)cc([N+](=O)[O-])c4s3)CC2)O1` [Compound 7c] registered a 50% cytotoxic concentration (CC50) at 72 h in “Cytotoxicity assay” of more than 115 µM.

`CON(C)C(=O)c1cc([N+](=O)[O-])c2sc(N3CCC4(CC3)OC[C@H](C)O4)nc(=O)c2c1` [Compound 7f]: the CC50 at 72 h in the data set “Cytotoxicity assay” is more than 111 µM.

`C[C@H]1COC2(CCN(c3nc(=O)c4cc(C(=O)O)cc([N+](=O)[O-])c4s3)CC2)O1` [Compound 8]: the “HMC formation (in words)” value with RAW 264.7 cells is given as “Traces”. Besides, the CC50 at 72 h in the data set “Cytotoxicity assay” is more than 123 µM.

Compound `C[C@H]1COC2(CCN(c3nc(=O)c4cc(C#N)cc([N+](=O)[O-])c4s3)CC2)O1` [Compound 9] came in with a 50% cytotoxic concentration (CC50) at 72 h in the data set “Cytotoxicity assay” of more than 129 µM.

Regarding `C[C@H]1COC2(CCN(c3nc(=O)c4cc(I)cc([N+](=O)[O-])c4s3)CC2)O1` [Compound 10], the 50% cytotoxic concentration (CC50) at 72 h in the data set “Cytotoxicity assay” was more than 102 µM.

Consider `C[C@H]1COC2(CCN(c3nc(=O)c4cc(Br)cc([N+](=O)[O-])c4s3)CC2)O1` [Compound 11], for which, in “Cytotoxicity assay”, the cytotoxic concentration (CC50) at 72 h is more than 113 µM.

Regarding `C[C@H]1COC2(CCN(c3nc(=O)c4cccc([N+](=O)[O-])c4s3)CC2)O1` [Compound 23], the “HMC formation (in words)” value in the data set on RAW 264.7 cells was “no detectable HMC formation”. This compound also gave a 50% cytotoxic concentration (CC50) at 72 h in “Cytotoxicity assay” of more than 138 µM.
